From PubChem BioAssay AID1918942 (Molecular Pharmacology Branch, DTP, NCI, 2023)

Test system: 743489-274-T-PDC complex spheroid viability
Experiment: Anticancer human tumor 743489-274-T-PDC patient-derived renal cell carcinoma cell line growth inhibition
Conditions: for IC50: curve of first compound; for viability, T/C: stronger effect = lower value
How it was run: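 Complex spheroids of tumor cells with HUVEC and human MSCs, exposed to iadademstat combined with other agents. Each agent tested in half-log steps from near clinical Cmax (else 10 microM top), DMSO ≤0.25%.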

[1] = second compound 0.1 µM, first compound 0.0316 µM
[2] = second compound 0.1 µM, first compound 0.1 µM
[3] = second compound 0.316 µM, first compound 0.0316 µM
[4] = second compound 0.316 µM, first compound 0.1 µM
[5] = second compound 1 µM, first compound 0.0316 µM
[6] = second compound 1 µM, first compound 0.1 µM
[7] = second compound 3.16 µM, first compound 0.0316 µM
[8] = second compound 3.16 µM, first compound 0.1 µM
[9] = second compound 10 µM, first compound 0.0316 µM
[10] = second compound 10 µM, first compound 0.1 µM
[11] = second compound 0.1 µM, first compound 0.000949 µM
[12] = second compound 0.1 µM, first compound 0.003 µM
[13] = second compound 0.1 µM, first compound 0.00949 µM
[14] = second compound 0.1 µM, first compound 0.03 µM
[15] = second compound 0.1 µM, first compound 0.0949 µM
[16] = second compound 0.1 µM, first compound 0.3 µM
[17] = second compound 0.316 µM, first compound 0.000949 µM
[18] = second compound 0.316 µM, first compound 0.003 µM
[19] = second compound 0.316 µM, first compound 0.00949 µM
[20] = second compound 0.316 µM, first compound 0.03 µM
[21] = second compound 0.316 µM, first compound 0.0949 µM
[22] = second compound 0.316 µM, first compound 0.3 µM
[23] = second compound 1 µM, first compound 0.000949 µM
[24] = second compound 1 µM, first compound 0.003 µM
[25] = second compound 1 µM, first compound 0.00949 µM
[26] = second compound 1 µM, first compound 0.03 µM
[27] = second compound 1 µM, first compound 0.0949 µM
[28] = second compound 1 µM, first compound 0.3 µM
[29] = second compound 3.16 µM, first compound 0.000949 µM
[30] = second compound 3.16 µM, first compound 0.003 µM
[31] = second compound 3.16 µM, first compound 0.00949 µM
[32] = second compound 3.16 µM, first compound 0.03 µM
[33] = second compound 3.16 µM, first compound 0.0949 µM
[34] = second compound 3.16 µM, first compound 0.3 µM
[35] = second compound 10 µM, first compound 0.000949 µM
[36] = second compound 10 µM, first compound 0.003 µM
[37] = second compound 10 µM, first compound 0.00949 µM
[38] = second compound 10 µM, first compound 0.03 µM
[39] = second compound 10 µM, first compound 0.0949 µM
[40] = second compound 10 µM, first compound 0.3 µM
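Further: spheroids exposed to compounds for 7 days before readout.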
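Wherever viability, T/C is given: 100% = DMSO vehicle control wells.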

Compound: CC[C@@]1(O)C(=O)OCc2c1cc1n(c2=O)Cc2cc3c(CN(C)C)c(O)ccc3nc2-1 + NC1CCC(NC2CC2c2ccccc2)CC1
- IC50 (second compound 0.1 µM): > 100 nM
- IC50 (second compound 0.316 µM): > 100 nM
- IC50 (second compound 1 µM): > 100 nM
- IC50 (second compound 3.16 µM): > 100 nM
- IC50 (second compound 10 µM): > 100 nM
- viability, T/C (second compound 0.1 µM, first compound 0.000316 µM): 119%
- viability, T/C (second compound 0.1 µM, first compound 0.001 µM): 103%
- viability, T/C (second compound 0.1 µM, first compound 0.00316 µM): 116%
- viability, T/C (second compound 0.1 µM, first compound 0.01 µM): 89.5%
- viability, T/C [1]: 75.6%
- viability, T/C [2]: 89.9%
- viability, T/C (second compound 0.316 µM, first compound 0.000316 µM): 107%
- viability, T/C (second compound 0.316 µM, first compound 0.001 µM): 122%
- viability, T/C (second compound 0.316 µM, first compound 0.00316 µM): 114%
- viability, T/C (second compound 0.316 µM, first compound 0.01 µM): 93.3%
- viability, T/C [3]: 96.5%
- viability, T/C [4]: 81.1%
- viability, T/C (second compound 1 µM, first compound 0.000316 µM): 120%
- viability, T/C (second compound 1 µM, first compound 0.001 µM): 122%
- viability, T/C (second compound 1 µM, first compound 0.00316 µM): 90.3%
- viability, T/C (second compound 1 µM, first compound 0.01 µM): 95.5%
- viability, T/C [5]: 77.8%
- viability, T/C [6]: 81.8%
- viability, T/C (second compound 3.16 µM, first compound 0.000316 µM): 120%
- viability, T/C (second compound 3.16 µM, first compound 0.001 µM): 110%
- viability, T/C (second compound 3.16 µM, first compound 0.00316 µM): 115%
- viability, T/C (second compound 3.16 µM, first compound 0.01 µM): 78.2%
- viability, T/C [7]: 87.3%
- viability, T/C [8]: 71.2%
- viability, T/C (second compound 10 µM, first compound 0.000316 µM): 120%
- viability, T/C (second compound 10 µM, first compound 0.001 µM): 127%
- viability, T/C (second compound 10 µM, first compound 0.00316 µM): 101%
- viability, T/C (second compound 10 µM, first compound 0.01 µM): 104%
- viability, T/C [9]: 85.1%
- viability, T/C [10]: 78.9%

Compound: CCc1c2c(nc3ccc(O)cc13)-c1cc3c(c(=O)n1C2)COC(=O)[C@]3(O)CC + NC1CCC(NC2CC2c2ccccc2)CC1
- IC50 (second compound 0.1 µM): 65.9 nM
- IC50 (second compound 0.316 µM): 28.6 nM
- IC50 (second compound 1 µM): 47.8 nM
- IC50 (second compound 3.16 µM): 22.1 nM
- IC50 (second compound 10 µM): 215 nM
- viability, T/C [11]: 86.3%
- viability, T/C [12]: 68.7%
- viability, T/C [13]: 62.7%
- viability, T/C [14]: 43.7%
- viability, T/C [15]: 54.4%
- viability, T/C [16]: 47.8%
- viability, T/C [17]: 96.8%
- viability, T/C [18]: 72.7%
- viability, T/C [19]: 54.2%
- viability, T/C [20]: 46.7%
- viability, T/C [21]: 49.9%
- viability, T/C [22]: 51.4%
- viability, T/C [23]: 94.5%
- viability, T/C [24]: 70.6%
- viability, T/C [25]: 70%
- viability, T/C [26]: 50.4%
- viability, T/C [27]: 42.1%
- viability, T/C [28]: 44%
- viability, T/C [29]: 95.2%
- viability, T/C [30]: 92.8%
- viability, T/C [31]: 62.1%
- viability, T/C [32]: 48.2%
- viability, T/C [33]: 41.3%
- viability, T/C [34]: 44%
- viability, T/C [35]: 89.8%
- viability, T/C [36]: 79.1%
- viability, T/C [37]: 64.5%
- viability, T/C [38]: 69.4%
- viability, T/C [39]: 51.3%
- viability, T/C [40]: 48.5%

Compound: Nc1ccccc1NC(=O)c1ccc(CNC(=O)OCc2cccnc2)cc1 + NC1CCC(NC2CC2c2ccccc2)CC1
- IC50 (second compound 0.1 µM): 932 nM
- IC50 (second compound 0.316 µM): > 3000 nM
- IC50 (second compound 1 µM): 1430 nM
- IC50 (second compound 3.16 µM): 1780 nM
- IC50 (second compound 10 µM): 1270 nM
- viability, T/C [13]: 96.2%
- viability, T/C [14]: 89.4%
- viability, T/C [15]: 83.7%
- viability, T/C [16]: 85.4%
- viability, T/C (second compound 0.1 µM, first compound 0.949 µM): 49.3%
- viability, T/C (second compound 0.1 µM, first compound 3 µM): 31.2%
- viability, T/C [19]: 116%
- viability, T/C [20]: 92.2%
- viability, T/C [21]: 88.2%
- viability, T/C [22]: 82.8%
- viability, T/C (second compound 0.316 µM, first compound 0.949 µM): 61.6%
- viability, T/C (second compound 0.316 µM, first compound 3 µM): 52.8%
- viability, T/C [25]: 107%
- viability, T/C [26]: 94.8%
- viability, T/C [27]: 88.9%
- viability, T/C [28]: 82.9%
- viability, T/C (second compound 1 µM, first compound 0.949 µM): 54.4%
- viability, T/C (second compound 1 µM, first compound 3 µM): 36.2%
- viability, T/C [31]: 113%
- viability, T/C [32]: 97.4%
- viability, T/C [33]: 97%
- viability, T/C [34]: 80.5%
- viability, T/C (second compound 3.16 µM, first compound 0.949 µM): 59.4%
- viability, T/C (second compound 3.16 µM, first compound 3 µM): 41%
- viability, T/C [37]: 107%
- viability, T/C [38]: 109%
- viability, T/C [39]: 87.9%
- viability, T/C [40]: 79.8%
- viability, T/C (second compound 10 µM, first compound 0.949 µM): 57.1%
- viability, T/C (second compound 10 µM, first compound 3 µM): 29.3%

Compound: Nc1ccn(C2OC(CO)C(O)C2(F)F)c(=O)n1 (stereo not given) + NC1CCC(NC2CC2c2ccccc2)CC1
- IC50 (second compound 0.1 µM): > 300 nM
- IC50 (second compound 0.316 µM): > 300 nM
- IC50 (second compound 1 µM): > 300 nM
- IC50 (second compound 3.16 µM): > 300 nM
- IC50 (second compound 10 µM): > 300 nM
- viability, T/C [11]: 77.8%
- viability, T/C [12]: 72.3%
- viability, T/C [13]: 71.5%
- viability, T/C [14]: 81.7%
- viability, T/C [15]: 68.9%
- viability, T/C [16]: 78.4%
- viability, T/C [17]: 86.3%
- viability, T/C [18]: 80%
- viability, T/C [19]: 74.6%
- viability, T/C [20]: 79.2%
- viability, T/C [21]: 73.2%
- viability, T/C [22]: 69.6%
- viability, T/C [23]: 68.5%
- viability, T/C [24]: 71.7%
- viability, T/C [25]: 74.6%
- viability, T/C [26]: 84.9%
- viability, T/C [27]: 76.5%
- viability, T/C [28]: 79.1%
- viability, T/C [29]: 81.5%
- viability, T/C [30]: 80%
- viability, T/C [31]: 85.2%
- viability, T/C [32]: 78.8%
- viability, T/C [33]: 76.4%
- viability, T/C [34]: 68.8%
- viability, T/C [35]: 91.7%
- viability, T/C [36]: 78.8%
- viability, T/C [37]: 84.8%
- viability, T/C [38]: 92.7%
- viability, T/C [39]: 74.3%
- viability, T/C [40]: 80.5%

Compound: O=C(c1cc(Cc2n[nH]c(=O)c3ccccc23)ccc1F)N1CCN(C(=O)C2CC2)CC1 + NC1CCC(NC2CC2c2ccccc2)CC1
- IC50 (second compound 0.1 µM): > 10000 nM
- IC50 (second compound 0.316 µM): > 10000 nM
- IC50 (second compound 1 µM): > 10000 nM
- IC50 (second compound 3.16 µM): > 10000 nM
- IC50 (second compound 10 µM): > 10000 nM
- viability, T/C [1]: 112%
- viability, T/C [2]: 111%
- viability, T/C (second compound 0.1 µM, first compound 0.316 µM): 101%
- viability, T/C (second compound 0.1 µM, first compound 1 µM): 101%
- viability, T/C (second compound 0.1 µM, first compound 3.16 µM): 110%
- viability, T/C (second compound 0.1 µM, first compound 10 µM): 106%
- viability, T/C [3]: 104%
- viability, T/C [4]: 106%
- viability, T/C (second compound 0.316 µM, first compound 0.316 µM): 120%
- viability, T/C (second compound 0.316 µM, first compound 1 µM): 107%
- viability, T/C (second compound 0.316 µM, first compound 3.16 µM): 124%
- viability, T/C (second compound 0.316 µM, first compound 10 µM): 100%
- viability, T/C [5]: 114%
- viability, T/C [6]: 100%
- viability, T/C (second compound 1 µM, first compound 0.316 µM): 106%
- viability, T/C (second compound 1 µM, first compound 1 µM): 110%
- viability, T/C (second compound 1 µM, first compound 3.16 µM): 111%
- viability, T/C (second compound 1 µM, first compound 10 µM): 108%
- viability, T/C [7]: 117%
- viability, T/C [8]: 129%
- viability, T/C (second compound 3.16 µM, first compound 0.316 µM): 120%
- viability, T/C (second compound 3.16 µM, first compound 1 µM): 98.8%
- viability, T/C (second compound 3.16 µM, first compound 3.16 µM): 100%
- viability, T/C (second compound 3.16 µM, first compound 10 µM): 113%
- viability, T/C [9]: 108%
- viability, T/C [10]: 116%
- viability, T/C (second compound 10 µM, first compound 0.316 µM): 110%
- viability, T/C (second compound 10 µM, first compound 1 µM): 119%
- viability, T/C (second compound 10 µM, first compound 3.16 µM): 116%
- viability, T/C (second compound 10 µM, first compound 10 µM): 89%
